In patent US7214766B2 (priority 1998, dated 2007):
Where two headings read alike, the source gives them in different places. No end group written: not given here.

How the values were obtained:
[1] = system: proteases present in whole cell extract (WCE); assay: Protection of Magainin 2 from degradation by WCE (Magainin 2 mixed with Rev4); type: in vitro ADME, Kentucky 14 tobacco; conditions: in Rev4 + Magainin 2 Mix
Protocol: (§1) Whole cell extract (WCE) was prepared by grinding one gram of Kentucky 14 tobacco leaf tissue in liquid nitrogen, followed by extraction with 3 mL of 100 mM Tris-HCl buffer, pH 7.5, 50 mM NaCl. The mixture was clarified by spinning in a microcentrifuge (14,000 r.p.m., 5 minutes). The supernatant (WCE) was kept frozen as aliquots at −80° C. until required for an assay. Fifty micrograms of each peptide was incubated with different amounts of WCE in 50 mM Tris-HCl buffer, pH 7.5, total volume 50 microliters, for one hour at 37° C. The reaction was stopped by adding 1% trifluoroacetic acid (TFA). A sample of the reaction mixture (20 μL) was injected onto a Vydac C4 column (4.6×250 mm) in a Waters HPLC system with 515 pumps, 486 detector and Millenium software. The sample was eluted with a gradient of 0.1% TFA in water to 60% acetonitrile in 0.1% TFA. The area of the peak corresponding to the undigested peptide was integrated and compared with the equivalent peak from a 0% WCE control.
(§2) Assays for WCE protease degradation were performed as described in Example 8 except that one of the samples represented Magainin 2 that was mixed with Rev4 before the addition of WCE. The amounts of Magainin 2 and Rev4 remaining in the mixture were determined by HPLC as described for Examples 7 and 8.

[2] = system: proteases present in whole cell extract (WCE); assay: Stability of peptides to proteases in whole cell extract (WCE), HPLC; type: in vitro ADME, Kentucky 14 tobacco; conditions: peptide alone
Protocol: as §1, §2

[3] = as above; type: in vitro ADME, Kentucky 14 tobacco; conditions: other tissue homogenate, peptide alone, read-out: % Peptide Remaining Intact after 1 Hr.
Protocol: as §1, §2

Pseudomonas aeruginosa = conditions: Falla and Hancock 1997; cited from earlier work
E. coli = conditions: Falla and Hancock 1997; cited from earlier work
Candida albicans = conditions: Falla and Hancock 1997; cited from earlier work
Staphylococcus aureus = conditions: Falla and Hancock 1997; cited from earlier work
Peronospora tabacina = assay: Tobacco blue mold spore germination assay; type: cell-based; conditions: for % Germination (mean +/− sem): final concentration of 2 μg/mL, control 76.6 +/− 11.2; for % Control: germination as % of no-peptide control, 2 μg/mL; for antifungal activity (in words): refers to EXAMPLE 12
Protocol: Tobacco blue mold (Peronospora tabacina) was used to compare the antifungal activity of Rev4 with that of MYP30. Spores of Peronospora tabacina were harvested from infected tobacco leaf with sterile water and washed three times. The spore suspension was diluted to 2,000 spores per mL. Peptide solution (2 μL) was added to spore suspension (48 μL) in a 96-well microtiter plate. After incubation in the dark at room temperature for 24 hours, the number of germinated spores was determined microscopically.
The peptides described as SEQ. ID Nos. 4, 5, 6, 7 and 8 in Examples 1, 3, 4, 5 and 6 were tested for antifungal activity as described in Example 11.

Chymotrypsin = biological target: T1, Chymotrypsin (Bos taurus, UniProt P00766); assay: Inhibition of protease digestion of fluorescent labeled casein: chymotrypsin; type: biochemical; conditions: for Chymotrypsin Activity (Fluorescence Units) Mean: no-peptide control 375
T1 construct: purchased
Protocol: (§3) The ability of Rev4 to inhibit four different classes of proteases was tested using fluorescent labeled casein as substrate under the following conditions:
(§4) Each protease was incubated with substrate (5 μg/mL fluorescent labeled casein; Molecular Probes Inc., Eugene, Oreg.) and peptide in a total volume of 200 μL in a 96-well microtiter plate. Before use, papain was activated with cysteine (Arnon, 1970, Methods in Enzymology 19:226–44). After incubation at room temperature for one hour, fluorescence due to casein digestion was measured in a Luminescence Spectrometer (LS50B, Perkin Elmer Ltd., England) with an excitation wavelength of 505 nm and an emission wavelength of 513 nm. The blank control contained the substrate, buffer and peptide but lacked the protease.
The peptides described in EXAMPLE 12 were tested for their effects on the action of chymotrypsin on casein using the methods described in EXAMPLE 10.

[4] = system: Alternaria alternata f.sp. lycopersici; assay: Minimum concentration to completely inhibit spore germination, Alternaria; type: cell-based; conditions: 5,000 spores per mL, triplicate
Source text: (§5) The antifungal activity of Rev4 and related peptides was also compared using two tomato pathogens, Verticillium dahliae racel and Alternaria alternata f.sp. lycopersici. Spores were harvested from pure cultures grown on V8 medium, diluted to 5,000 spores per mL, and tested against dilution series of peptides in 96-well plates as described in U.S. Pat. No. 5,424,395.

[5] = system: Verticillium dahliae racel; assay: Minimum concentration to completely inhibit spore germination, Verticillium; type: cell-based; conditions: 5,000 spores per mL, triplicate
Source text: as §5

Papain = biological target: T2, Papain (Carica papaya, UniProt P00784); assay: Inhibition of protease digestion of fluorescent labeled casein: papain; type: biochemical; conditions: pH 6.2, papain 0.01 mg/mL, pH6.2, read-out: % Inhibition of Proteolysis
T2 construct: purchased
T2 sequence (P00784 134-345): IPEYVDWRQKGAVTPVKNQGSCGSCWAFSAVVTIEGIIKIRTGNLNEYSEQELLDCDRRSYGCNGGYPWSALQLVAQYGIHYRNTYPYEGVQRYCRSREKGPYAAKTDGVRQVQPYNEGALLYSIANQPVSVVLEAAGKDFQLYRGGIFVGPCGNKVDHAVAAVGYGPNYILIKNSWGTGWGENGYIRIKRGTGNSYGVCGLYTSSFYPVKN
Protocol: as §3, §4

Pepsin = biological target: T3, Pepsin (Sus scrofa, UniProt P00791); assay: Inhibition of protease digestion of fluorescent labeled casein: pepsin; type: biochemical; conditions: pH 2, pepsin 0.01 mg/mL, pH2.0, read-out: % Inhibition of Proteolysis
T3 construct: purchased
T3 sequence (P00791 60-385): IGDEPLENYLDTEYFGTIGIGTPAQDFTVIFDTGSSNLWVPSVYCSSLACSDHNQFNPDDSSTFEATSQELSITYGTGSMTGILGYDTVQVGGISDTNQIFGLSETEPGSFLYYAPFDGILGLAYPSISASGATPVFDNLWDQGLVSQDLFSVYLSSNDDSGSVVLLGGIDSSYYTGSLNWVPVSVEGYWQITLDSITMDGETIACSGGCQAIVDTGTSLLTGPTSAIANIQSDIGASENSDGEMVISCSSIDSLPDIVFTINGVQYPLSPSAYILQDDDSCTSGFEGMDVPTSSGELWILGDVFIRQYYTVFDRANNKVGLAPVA
Protocol: as §3, §4

[6] = system: proteases in the intercellular fluid of plant leaves; conditions: cited from earlier work

H-GIGKFLHSAKKFGKAFVGEIMNS-OH [Magainin 2, reference compound]
% Peptide Remaining Intact after 1 Hr. ([1]; 15% WCE): 89.7%
% Peptide Remaining Intact after 1 Hr. ([1]; 30% WCE): 87.6%
% Peptide Remaining Intact after 1 Hr. ([1]; 60% WCE): 73.1%
% Peptide Remaining Intact after 1 Hr. ([1]; 90% WCE): 56.3%
% Peptide Remaining Intact after 1 Hr. ([2]; 45% WCE): 0.4%
% Peptide Remaining Intact after 1 Hr. ([2]; 60% WCE): 0.3%
remaining at 1 h, 1 mg/mL ([3]; pH 7.5, 15% WCE): 10.9%
remaining at 1 h, 1 mg/mL ([3]; pH 7.5, 30% WCE): 0.3%
remaining at 1 h, 1 mg/mL ([3]; pH 7.5, 90% WCE): 0.4%

ILKKWPWWPWRR [CP-11, synthetic peptide based on indolicidin (Falla and Hancock)]
activity against Pseudomonas aeruginosa relative to indolicidin (in words) (Pseudomonas aeruginosa): better activity
activity against E. coli relative to indolicidin (in words) (E. coli): better activity
activity against Candida albicans relative to indolicidin (in words) (Candida albicans): better activity
activity against Staphylococcus aureus relative to indolicidin (in words) (Staphylococcus aureus): reduced activity

Ile Leu Lys Gly Phe Pro Gly Phe Pro Arg Arg Lys (ILKGFPGFPRRK-NH2) [SEQ. ID NO. 8, derivative of indolicidin in which Trp residues were replaced by Phe and a Pro residue was deleted]
% Germination (mean +/− sem) (Peronospora tabacina): 17.3 +/− 3.5%
% Control (Peronospora tabacina): 23%
antifungal activity (in words) (Peronospora tabacina): had retained antifungal activity
protection of fluorescent-labeled casein from chymotrypsin (in words) (Chymotrypsin): did not have this protective effect
Chymotrypsin Activity (Fluorescence Units) Mean (Chymotrypsin; peptide 5 μg/mL): 385 Fluorescence Units
Chymotrypsin Activity (Fluorescence Units) Mean (Chymotrypsin; peptide 20 μg/mL): 321 Fluorescence Units

Ile Leu Pro Phe Lys Phe Pro Phe Phe Pro Phe Arg Arg (ILPFKFPFFPFRR-NH2) [SEQ. ID NO. 7, indolicidin in which the Trp residues were replaced with Phe]
% Germination (mean +/− sem) (Peronospora tabacina): 8.8 +/− 5.4%
% Control (Peronospora tabacina): 11%
antifungal activity (in words) (Peronospora tabacina): had retained antifungal activity
minimum concentration required to completely inhibit spore germination for at least 48 hours [4]: 100 µg/mL
protection of fluorescent-labeled casein from chymotrypsin (in words) (Chymotrypsin): did not have this protective effect
Chymotrypsin Activity (Fluorescence Units) Mean (Chymotrypsin; peptide 5 μg/mL): 386 Fluorescence Units
Chymotrypsin Activity (Fluorescence Units) Mean (Chymotrypsin; peptide 20 μg/mL): 385 Fluorescence Units
minimum concentration required to completely inhibit spore germination for at least 48 hours [5]: 50 µg/mL

RRWPWWPWKWPLI-NH2 [Rev4, Arg Arg Trp Pro Trp Trp Pro Trp Lys Trp Pro Leu Ile]
inhibition at 2.5 µg/mL (Papain; Rev4 2.5 μg/ml): 29%
inhibition at 5 µg/mL (Papain; Rev4 5 μg/ml): 72%
inhibition at 10 µg/mL (Papain; Rev4 10 μg/ml): 93%
inhibition at 20 µg/mL (Papain; Rev4 20 μg/ml): 99%
inhibition at 2.5 µg/mL (Chymotrypsin; pH 8, Rev4 2.5 μg/ml, chymotrypsin 0.01 mg/mL, pH8.0, read-out: % Inhibition of Proteolysis): 16%
inhibition at 5 µg/mL (Chymotrypsin; pH 8, Rev4 5 μg/ml, chymotrypsin 0.01 mg/mL, pH8.0, read-out: % Inhibition of Proteolysis): 42%
inhibition at 10 µg/mL (Chymotrypsin; pH 8, Rev4 10 μg/ml, chymotrypsin 0.01 mg/mL, pH8.0, read-out: % Inhibition of Proteolysis): 75%
inhibition at 20 µg/mL (Chymotrypsin; pH 8, Rev4 20 μg/ml, chymotrypsin 0.01 mg/mL, pH8.0, read-out: % Inhibition of Proteolysis): 97%
inhibition at 25 µg/mL (Pepsin; Rev4 25 μg/ml): 3%
inhibition at 50 µg/mL (Pepsin; Rev4 50 μg/ml): 0%
inhibition at 100 µg/mL (Pepsin; Rev4 100 μg/ml): 0%

RRWPWWPWKWPLIGGGYDPAPPPPPP [SEQ. ID NO. 6, Rev4 with a C-terminal extension of 13 amino acids]
% Germination (mean +/− sem) (Peronospora tabacina): 5.7 +/− 9.8%
% Control (Peronospora tabacina): 7%
minimum concentration required to completely inhibit spore germination for at least 48 hours [4]: 50 µg/mL
protection of fluorescent-labeled casein from chymotrypsin (in words) (Chymotrypsin): protected fluorescent-labeled casein from the action of chymotrypsin
Chymotrypsin Activity (Fluorescence Units) Mean (Chymotrypsin; peptide 5 μg/mL): 212 Fluorescence Units
Chymotrypsin Activity (Fluorescence Units) Mean (Chymotrypsin; peptide 20 μg/mL): 45 Fluorescence Units
minimum concentration required to completely inhibit spore germination for at least 48 hours [5]: 23 µg/mL

Ser Arg Arg Trp Pro Trp Trp Pro Trp Lys Trp Pro Leu Ile (SRRWPWWPWKWPLI-OH) [SEQ. ID NO. 5, analog of Rev4 in which an extra Ser was added to the N-terminus]
% Germination (mean +/− sem) (Peronospora tabacina): 6.8 +/− 6.3%
% Control (Peronospora tabacina): 9%
protection of fluorescent-labeled casein from chymotrypsin (in words) (Chymotrypsin): protected fluorescent-labeled casein from the action of chymotrypsin
Chymotrypsin Activity (Fluorescence Units) Mean (Chymotrypsin; peptide 5 μg/mL): 162 Fluorescence Units
Chymotrypsin Activity (Fluorescence Units) Mean (Chymotrypsin; peptide 20 μg/mL): 44 Fluorescence Units
minimum concentration required to completely inhibit spore germination for at least 48 hours [5]: 50 µg/mL

cecropin B: antimicrobial peptide cecropin B (KWKVFKKIEKMGRNIRNGIVKAGPAIAVLGEAKAL; ends and bridges not checked; UniProt P01508 27-61, looked up)
degradation / stability against proteases of plant intercellular fluid (in words) [6]: rapidly degraded
